In paper PMC3198402 (PLoS ONE, 2011) one finds Kd data, which are given here for 15 sequences.

In experiment [1] the target is HLA-A*02:01 (Homo sapiens, UniProt P04439, D140Y/D185E/D98H/E176V/E277Q/G131W/G231S/I119V/I121R/I166T/I218V/L300P/L318F/N151K/N90K/P208A/P217A/Q86G/Q94H/R138H/R169H/T345S). Kind of experiment: biochemical. The format is binding.
Experiment [2] addresses HLA-A*24:03 (Homo sapiens, UniProt P04439, D101N/D140Y/D185E/E176V/F33S/G103R/G107R/I119L/I121M/I306V/K335N/L105A/L180Q/L300P/N151K/N90K/Q86E/Q94H/R106L/R138H/R89G/T104I/T345S/V100E/Y123F). Kind of experiment: biochemical. It counts as binding.

Where no end group is shown, it is not given here.

The term Kd denotes the concentration at which binding is half-saturated. Take YMPSVVETL [Peptide 14607]: in experiment [1], the Kd is 1 nM.

In experiment [1], KMDIGVPLL [Peptide 14598] showed a Kd of 1 nM.

As to GFLNEDHWF [Peptide 14615], the Kd in experiment [2] is 34 nM.

In experiment [2], WYMWLGARF [Peptide 14613] displayed a Kd of 19 nM.

On to GFMNEDHWF [Peptide 14622], for which binding in experiment [2] was characterised by a dissociation constant (Kd) of 17 nM.

SMVNGVVRL [Peptide 14599] yielded a Kd in experiment [1] of 2 nM.

MALVAFLRF [Peptide 14610]: in experiment [2], the Kd came to 13 nM.

Sequence SMVNGVVKL [Peptide 14605] yielded a Kd in experiment [1] of 25 nM.

For LLLTLLATV [Peptide 14597], the Kd in experiment [1] was 43 nM.

In the case of ILTDGPERV [Peptide 14602], in experiment [1], the Kd was 4 nM.

In the case of VLNPYMPTV [Peptide 14604], in experiment [1], the Kd is 1 nM.

As to PLNEGIMAV [Peptide 14600], binding in experiment [1] was characterised by a dissociation constant (Kd) of 48 nM.

Regarding TLYAVATTV [Peptide 14606], in experiment [1], the affinity, expressed as Kd, was 1 nM.

WYGMEIRPL [Peptide 14612] returned a Kd in experiment [2] of 119 nM.

In experiment [2], TYGWNIVKL [Peptide 14623] had a Kd of 76 nM.
